{
  "source": "BigSolDB 2.1",
  "data": [
    {"smiles": "O=C1OC(=O)c2ccc(Br)c3cccc1c23", "values": [
      {"measurement": "solubility (mole fraction)", "setting": "in acetic acid, 278.15 K", "result": 0.000263},
      {"measurement": "solubility (mole fraction)", "setting": "in acetic acid, 283.15 K", "result": 0.000316},
      {"measurement": "solubility (mole fraction)", "setting": "in acetic acid, 288.15 K", "result": 0.000382},
      {"measurement": "solubility (mole fraction)", "setting": "in acetic acid, 293.15 K", "result": 0.00046},
      {"measurement": "solubility (mole fraction)", "setting": "in acetic acid, 298.15 K", "result": 0.000565},
      {"measurement": "solubility (mole fraction)", "setting": "in acetic acid, 303.15 K", "result": 0.000666},
      {"measurement": "solubility (mole fraction)", "setting": "in acetone, 278.15 K", "result": 0.001},
      {"measurement": "solubility (mole fraction)", "setting": "in acetone, 283.15 K", "result": 0.00119},
      {"measurement": "solubility (mole fraction)", "setting": "in acetone, 288.15 K", "result": 0.00138},
      {"measurement": "solubility (mole fraction)", "setting": "in acetone, 293.15 K", "result": 0.00161},
      {"measurement": "solubility (mole fraction)", "setting": "in acetone, 298.15 K", "result": 0.00192},
      {"measurement": "solubility (mole fraction)", "setting": "in acetone, 303.15 K", "result": 0.00224},
      {"measurement": "solubility (mole fraction)", "setting": "in ethanol, 278.15 K", "result": "2.66e-05"},
      {"measurement": "solubility (mole fraction)", "setting": "in ethanol, 283.15 K", "result": "3.65e-05"},
      {"measurement": "solubility (mole fraction)", "setting": "in ethanol, 288.15 K", "result": "5.08e-05"},
      {"measurement": "solubility (mole fraction)", "setting": "in ethanol, 293.15 K", "result": "6.99e-05"},
      {"measurement": "solubility (mole fraction)", "setting": "in ethanol, 298.15 K", "result": "9.53e-05"},
      {"measurement": "solubility (mole fraction)", "setting": "in ethanol, 303.15 K", "result": 0.000131},
      {"measurement": "solubility (mole fraction)", "setting": "in methanol, 278.15 K", "result": "4.62e-05"},
      {"measurement": "solubility (mole fraction)", "setting": "in methanol, 283.15 K", "result": "6.41e-05"},
      {"measurement": "solubility (mole fraction)", "setting": "in methanol, 288.15 K", "result": "8.62e-05"},
      {"measurement": "solubility (mole fraction)", "setting": "in methanol, 293.15 K", "result": 0.000118},
      {"measurement": "solubility (mole fraction)", "setting": "in methanol, 298.15 K", "result": 0.00016},
      {"measurement": "solubility (mole fraction)", "setting": "in methanol, 303.15 K", "result": 0.000212}
    ]}
  ]
}
